{
  "source": "patent US10787452B2",
  "about": "(Vertex Pharmaceuticals Incorporated, priority 2012, dated 2020)",
  "system": "HCT116 colorectal cancer cells",
  "experiment": "Cisplatin sensitization assay (96 h cell viability MTS);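 also: compound concentration needed to lower the Cisplatin-alone IC50 by a set fold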",
  "format": "cell-based",
  "conditions": "96 h MTS, compound plus Cisplatin",
  "procedure,_shortened": "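Simultaneous addition of compound and cisplatin (2-fold series, top 10 μM final, full matrix), followed by 96 h culture at 37° C/5% CO2 and a 1 h MTS viability read.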",
  "data": [
    {"molecule": "Cc1cncc(NC(=O)c2c(N)nn3cc(Cl)cnc23)c1N1CCN(C)CC1", "note": "[I-N-57, 2-amino-6-chloro-N-(5-methyl-4-(4-methylpiperazin-1-yl)pyridin-3-yl)pyrazolo[1,5-a]pyrimidine-3-carboxamide]", "values": [
      {"measurement": "Cisplatin Sensitization Assay", "result": "+++ (Compounds with a Cisplatin sensitization value of <0.02 μM are marked with “+++.”)"}
    ]},
    {"molecule": "Nc1nn2cc(Cl)cnc2c1C(=O)Nc1cnccc1N1CCN(C2COC2)CC1", "note": "[I-N-58, 2-amino-6-chloro-N-(4-(4-(oxetan-3-yl)piperazin-1-yl)pyridin-3-yl)pyrazolo[1,5-a]pyrimidine-3-carboxamide]", "values": [
      {"measurement": "Cisplatin Sensitization Assay", "result": "++ (Compounds with a Cisplatin sensitization value >0.02 μM but <0.2 μM are marked with “++.”)"}
    ]},
    {"molecule": "CN1CCN(c2ccncc2NC(=O)c2c(N)nn3cc(Cl)cnc23)CC1", "note": "[I-N-59, 2-amino-6-chloro-N-(4-(4-methylpiperazin-1-yl)pyridin-3-yl)pyrazolo[1,5-a]pyrimidine-3-carboxamide]", "values": [
      {"measurement": "Cisplatin Sensitization Assay", "result": "++ (Compounds with a Cisplatin sensitization value >0.02 μM but <0.2 μM are marked with “++.”)"}
    ]},
    {"molecule": "COCCN1CCN(c2ccncc2NC(=O)c2c(N)nn3cc(Cl)cnc23)CC1", "note": "[I-N-60, 2-amino-6-chloro-N-(4-(4-(2-methoxyethyl)piperazin-1-yl)pyridin-3-yl)pyrazolo[1,5-a]pyrimidine-3-carboxamide]", "values": [
      {"measurement": "Cisplatin Sensitization Assay", "result": "+++ (Compounds with a Cisplatin sensitization value of <0.02 μM are marked with “+++.”)"}
    ]},
    {"molecule": "CN1CCN2CCN(c3ccncc3NC(=O)c3c(N)nn4cc(Cl)cnc34)CC2C1", "note": "(centres unmarked) [I-N-61, 2-amino-6-chloro-N-(4-(8-methylhexahydro-1H-pyrazino[1,2-a]pyrazin-2(6H)-yl)pyridin-3-yl)pyrazolo[1,5-a]pyrimidine-3-carboxamide]", "values": [
      {"measurement": "Cisplatin Sensitization Assay", "result": "+++ (Compounds with a Cisplatin sensitization value of <0.02 μM are marked with “+++.”)"}
    ]},
    {"molecule": "CC1(N2CCN(c3ccncc3NC(=O)c3c(N)nn4cc(F)cnc34)CC2)COC1", "note": "[I-N-62, 2-amino-6-fluoro-N-(4-(4-(3-methyloxetan-3-yl)piperazin-1-yl)pyridin-3-yl)pyrazolo[1,5-a]pyrimidine-3-carboxamide]", "values": [
      {"measurement": "Cisplatin Sensitization Assay", "result": "++ (Compounds with a Cisplatin sensitization value >0.02 μM but <0.2 μM are marked with “++.”)"}
    ]},
    {"molecule": "CN1CCN(c2ccncc2NC(=O)c2c(N)nn3cc(Cl)cnc23)CC1CO", "note": "(centres unmarked) [I-N-63, 2-amino-6-chloro-N-(4-(3-(hydroxymethyl)-4-methylpiperazin-1-yl)pyridin-3-yl)pyrazolo[1,5-a]pyrimidine-3-carboxamide]", "values": [
      {"measurement": "Cisplatin Sensitization Assay", "result": "++ (Compounds with a Cisplatin sensitization value >0.02 μM but <0.2 μM are marked with “++.”)"}
    ]},
    {"molecule": "Nc1nn2cc(Cl)cnc2c1C(=O)Nc1cnccc1N1CCN(C2CC2)CC1", "note": "[I-N-64, 2-amino-6-chloro-N-(4-(4-cyclopropylpiperazin-1-yl)pyridin-3-yl)pyrazolo[1,5-a]pyrimidine-3-carboxamide]", "values": [
      {"measurement": "Cisplatin Sensitization Assay", "result": "+++ (Compounds with a Cisplatin sensitization value of <0.02 μM are marked with “+++.”)"}
    ]},
    {"molecule": "Nc1nn2cc(Cl)cnc2c1C(=O)Nc1cnccc1N1CCN2CCC[C@@H]2C1", "note": "[I-N-65, (R)-2-amino-6-chloro-N-(4-(hexahydropyrrolo[1,2-a]pyrazin-2(1H)-yl)pyridin-3-yl)pyrazolo[1,5-a]pyrimidine-3-carboxamide]", "values": [
      {"measurement": "Cisplatin Sensitization Assay", "result": "+ (Compounds with a Cisplatin sensitization value >0.2 μM but <5 μM are marked with “+.”)"}
    ]},
    {"molecule": "CC1(O)CCN(c2ccncc2NC(=O)c2c(N)nn3cc(Cl)cnc23)CC1", "note": "[I-N-66, 2-amino-6-chloro-N-(4-(4-hydroxy-4-methylpiperidin-1-yl)pyridin-3-yl)pyrazolo[1,5-a]pyrimidine-3-carboxamide]", "values": [
      {"measurement": "Cisplatin Sensitization Assay", "result": "+++ (Compounds with a Cisplatin sensitization value of <0.02 μM are marked with “+++.”)"}
    ]},
    {"molecule": "Nc1nn2cc(Cl)cnc2c1C(=O)Nc1cnccc1N1CCN(CC(F)(F)F)CC1", "note": "[I-N-67, 2-amino-6-chloro-N-(4-(4-(2,2,2-trifluoroethyl)piperazin-1-yl)pyridin-3-yl)pyrazolo[1,5-a]pyrimidine-3-carboxamide]", "values": [
      {"measurement": "Cisplatin Sensitization Assay", "result": "+++ (Compounds with a Cisplatin sensitization value of <0.02 μM are marked with “+++.”)"}
    ]},
    {"molecule": "Nc1nn2cc(Cl)cnc2c1C(=O)Nc1cnccc1N1CC[S+]([O-])CC1", "note": "[I-N-68, 2-amino-6-chloro-N-(4-(1-oxidothiomorpholino)pyridin-3-yl)pyrazolo[1,5-a]pyrimidine-3-carboxamide]", "values": [
      {"measurement": "Cisplatin Sensitization Assay", "result": "+++ (Compounds with a Cisplatin sensitization value of <0.02 μM are marked with “+++.”)"}
    ]},
    {"molecule": "CC(C)(O)C1CCN(c2ccncc2NC(=O)c2c(N)nn3cc(Cl)cnc23)CC1", "note": "[I-N-69, 2-amino-6-chloro-N-(4-(4-(2-hydroxypropan-2-yl)piperidin-1-yl)pyridin-3-yl)pyrazolo[1,5-a]pyrimidine-3-carboxamide]", "values": [
      {"measurement": "Cisplatin Sensitization Assay", "result": "+++ (Compounds with a Cisplatin sensitization value of <0.02 μM are marked with “+++.”)"}
    ]},
    {"molecule": "Nc1nn2cc(Cl)cnc2c1C(=O)Nc1cnccc1N1CCNC(C(F)(F)F)C1", "note": "(centres unmarked) [I-N-70, 2-amino-6-chloro-N-(4-(3-(trifluoromethyl)piperazin-1-yl)pyridin-3-yl)pyrazolo[1,5-a]pyrimidine-3-carboxamide]", "values": [
      {"measurement": "Cisplatin Sensitization Assay", "result": "++ (Compounds with a Cisplatin sensitization value >0.02 μM but <0.2 μM are marked with “++.”)"}
    ]},
    {"molecule": "Nc1nn2cc(Cl)cnc2c1C(=O)Nc1cnccc1N1CCN2CCC[C@H]2C1", "note": "[I-N-71, (S)-2-amino-6-chloro-N-(4-(hexahydropyrrolo[1,2-a]pyrazin-2(1H)-yl)pyridin-3-yl)pyrazolo[1,5-a]pyrimidine-3-carboxamide]", "values": [
      {"measurement": "Cisplatin Sensitization Assay", "result": "+++ (Compounds with a Cisplatin sensitization value of <0.02 μM are marked with “+++.”)"}
    ]},
    {"molecule": "CC1CN(C)CCN1c1ccncc1NC(=O)c1c(N)nn2cc(Cl)cnc12", "note": "(centres unmarked) [I-N-72, 2-amino-6-chloro-N-(4-(2,4-dimethylpiperazin-1-yl)pyridin-3-yl)pyrazolo[1,5-a]pyrimidine-3-carboxamide]", "values": [
      {"measurement": "Cisplatin Sensitization Assay", "result": "+++ (Compounds with a Cisplatin sensitization value of <0.02 μM are marked with “+++.”)"}
    ]},
    {"molecule": "COC1CCN(c2ccncc2NC(=O)c2c(N)nn3cc(Cl)cnc23)CC1", "note": "[I-N-73, 2-amino-6-chloro-N-(4-(4-methoxypiperidin-1-yl)pyridin-3-yl)pyrazolo[1,5-a]pyrimidine-3-carboxamide]", "values": [
      {"measurement": "Cisplatin Sensitization Assay", "result": "+++ (Compounds with a Cisplatin sensitization value of <0.02 μM are marked with “+++.”)"}
    ]},
    {"molecule": "COC(=O)C1CCN(c2ccncc2NC(=O)c2c(N)nn3cc(Cl)cnc23)CC1", "note": "[I-N-74, methyl-1-(3-(2-amino-6-chloropyrazolo[1,5-a]pyrimidine-3-carboxamido)pyridin-4-yl)piperidine-4-carboxylate]", "values": [
      {"measurement": "Cisplatin Sensitization Assay", "result": "+++ (Compounds with a Cisplatin sensitization value of <0.02 μM are marked with “+++.”)"}
    ]},
    {"molecule": "Nc1nn2cc(Cl)cnc2c1C(=O)Nc1cnccc1N1CCn2cncc2C1", "note": "[I-N-75, 2-amino-6-chloro-N-(4-(5,6-dihydroimidazo[1,5-a]pyrazin-7(8H)-yl)pyridin-3-yl)pyrazolo[1,5-a]pyrimidine-3-carboxamide]", "values": [
      {"measurement": "Cisplatin Sensitization Assay", "result": "+++ (Compounds with a Cisplatin sensitization value of <0.02 μM are marked with “+++.”)"}
    ]},
    {"molecule": "CN1CCN(c2ccncc2NC(=O)c2c(N)nn3cc(C(C)(C)C#N)cnc23)CC1", "note": "[I-N-76, 2-amino-6-(2-cyanopropan-2-yl)-N-(4-(4-methylpiperazin-1-yl)pyridin-3-yl)pyrazolo[1,5-a]pyrimidine-3-carboxamide]", "values": [
      {"measurement": "Cisplatin Sensitization Assay", "result": "+++ (Compounds with a Cisplatin sensitization value of <0.02 μM are marked with “+++.”)"}
    ]}
  ]
}
